In PubChem BioAssay (NCI):
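Each compound was tested at five concentrations against cells in 96-well plates for 48 hours. GI50 = concentration required for 50% inhibition of growth. At the TGI there is no net growth.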 *1 amine or outer side, *2 acyl side, *3 side chain or, on linkers, in order; H or OH if unused. Where a SMILES comes first, the peptide text is derived from it. Bridges are numbered along the chain shown (N, C = ends). Roman numbers before positions name the chains, in order. [ ]: non-standard residue; d: D form. Actinocin(9to1) = Cc1c2oc3c(C)ccc(C(=O)[*:1])c3nc-2c(C(=O)[*:2])c(N)c1=O; NMeV = CN[CH](C(=O)O)C(C)C; Sar = CNCC(=O)O

Columns and labels:
Experiment in all cases: inhibition of tumour cell growth, NCI panel, 48 h
OVCAR-4 ovarian = tested on: OVCAR-4 ovarian
786-0 renal = tested on: 786-0 renal
OVCAR-8 ovarian = tested on: OVCAR-8 ovarian
HOP-62 NSCLC = tested on: HOP-62 NSCLC
OVCAR-3 ovarian = tested on: OVCAR-3 ovarian
MOLT-4 leukemia = tested on: MOLT-4 leukemia
A549 NSCLC = tested on: A549 NSCLC
SK-MEL-2 melanoma = tested on: SK-MEL-2 melanoma
NCI-H23 lung = tested on: NCI-H23 lung
CCRF-CEM leukemia = tested on: CCRF-CEM leukemia

SMILES	TGI (OVCAR-4 ovarian) [µM]	TGI (786-0 renal) [µM]	TGI (OVCAR-8 ovarian) [µM]	TGI (HOP-62 NSCLC) [µM]	TGI (OVCAR-3 ovarian) [µM]	TGI (MOLT-4 leukemia) [µM]	TGI (A549 NSCLC) [µM]	TGI (SK-MEL-2 melanoma) [µM]	TGI (NCI-H23 lung) [µM]	TGI (CCRF-CEM leukemia) [µM]	GI50 (OVCAR-4 ovarian) [µM]	GI50 (A549 NSCLC) [µM]	GI50 (CCRF-CEM leukemia) [µM]	GI50 (OVCAR-8 ovarian) [µM]	GI50 (HOP-62 NSCLC) [µM]	GI50 (MOLT-4 leukemia) [µM]
O=[N+]([O-])c1cccc([N+](=O)[O-])c1Cl	45.6	> 100	31.5	> 100	4.84	> 100	30	43.9	40.5							
COc1ccc(Nc2nc(NNC(=O)Cc3ccccc3)nc(NNC(=O)c3ccncc3)n2)cc1	> 10	> 10	> 10	> 10	> 10	> 10	> 10		> 10	> 10						
CCOC(=O)NC(OCc1ccccc1)(C(=O)OC)C(F)(F)F (centres undefined)	> 100		> 100		> 100	> 100	> 100	> 100	> 100	> 100						
COc1ccc2c3c([nH]c2c1)-c1nc2ccccc2c(=O)n1CC3	> 25	> 25	> 25	> 25		> 25	> 25			> 25	> 25	0.754	> 25			
N#C[C@H]1C(=O)C(c2nc3ccccc3[nH]2)S[C@H]1c1ccccc1 (some centres undefined)	> 100	54.2	> 100		> 100	> 100	> 100		76.1	> 100						
CC(=O)OCC1(CNc2nc(N)ncc2C#N)CC(CCc2ccccc2)C1 (centres undefined)	> 100	> 100	> 100	> 100		> 100	> 100	> 100	> 100	> 100						
Cc1cn([C@@H]2C[C@](C)(CO)N(C)O2)c(=O)[nH]c1=O	> 100	> 100	> 100	> 100			> 100	> 100	> 100	> 100						
C=C1C(=O)O[C@H]2[C@H]1CC/C(COC(=O)/C=C/C(=O)OC/C1=C/CC[C@@]3(C)O[C@H]3[C@H]3OC(=O)C(=C)[C@@H]3CC1)=C\CC[C@@]1(C)O[C@@H]21			3.05	> 100		1.4	> 100					> 100		1.53	5.43	0.307
Oc1ccc(O)c(Sc2nnc(CCCCCCCCc3nnc(Sc4cc(O)ccc4O)o3)o2)c1	> 100	35.7		> 100		> 100	> 100	> 100	> 100							
NC(=O)CC[C@H]1C(=O)N=C(N)N1C(=O)OCc1ccccc1	> 100	> 100	> 100	> 100	> 100	> 100		> 100	> 100							
Cc1ccc(C(=O)NN=C(/N=N/c2cccc(C)c2)c2ccc(N(C)C)cc2)cc1	> 100	> 100	> 100		> 100	> 100	> 100	> 100	> 100	> 100						
O=C(O)Cn1ncn(NC(=O)Cc2ccccc2)c1=S	> 10	> 10	> 10	> 10	> 10	> 10	> 10		> 10	> 10						
Cc1cc(=O)[nH]c(NN2C(Cl)C(=O)C2c2ccco2)n1 (centres undefined)	> 100		> 100	> 100	79.4	> 100	> 100	99.7	> 100	45.6						
O=C(NCCNCCO)N/N=C/c1ccccc1	> 100	> 100	> 100		> 100	> 100	> 100	> 100	> 100	> 100						
COc1ccc(C[C@H]2COC(=O)[C@@H]2Cc2ccccc2)cc1OC		> 100	> 100	> 100	> 100	> 100	> 100		> 100	> 100						
O=C1/C(=C/c2cccs2)N=C(c2ccccc2)N1c1nc2ccccc2s1		> 100	> 100	> 100	> 100	> 100	> 100	> 100	> 100	0.976						
Cn1c(=O)[nH]n(-c2ccc3ccccc3c2)c1=O	> 100	> 100	> 100		> 100		> 100	> 100	> 100	> 100						
CCCCNC(=S)Nc1nc(C(=O)NNC(=S)NCc2ccccc2)cs1	> 100	> 100	> 100	> 100	> 100	> 100	> 100	> 100	> 100							
CCn1c(O)c(C(=O)NC(C)c2ccc([N+](=O)[O-])cc2)c(=O)n(CC)c1=S (centres undefined)	12.1	11.7		6.54	10.5	5.52	11.5	2.72	4.63	11.9						
Cc1c2oc3c(C)ccc(C(=O)NC4C(=O)NC(Cc5ccc(O)cc5)C(=O)N5CCCC5C(=O)N(C)CC(=O)N(C)C(C(C)C)C(=O)OC4C)c3nc-2c(C(=O)NC2C(=O)NC(Cc3ccc(O)cc3)C(=O)N3CCCC3C(=O)N(C)CC(=O)N(C)C(C(C)C)C(=O)OC2C)c(N)c1=O (centres undefined) (I: TYP[Sar][NMeV] / II: TYP[Sar][NMeV]; ester I:1-I:C, II:1-II:C; linker I:N-II:N via Actinocin(9to1); configuration not given here)	> 42.1	> 74.9	> 100	> 52.2	> 48.1		> 100	> 43.6	> 79.2							
O=C1/C(=C/C=C/c2ccccc2)CCC1CNc1ccc(Br)cc1 (centres undefined)	> 100	> 100	> 100	> 100	> 100	> 100	> 100		> 100	> 100						
CC(C)(C)C(=O)O[C@H]1C=C[C@@H](O)[C@@H]2[C@H]1[C@@H]1C=C[C@H]2C1	60	> 100	> 100		> 100	83.8	> 100	> 100	48	> 100						
